The results in this text go back to patent US20120053168A1, “FUSED BENZOAZEPINES AS NEURONAL NICOTINIC ACETYLCHOLINE RECEPTOR LIGANDS” (Targacept, Inc., priority 2009, published 2012).

Read-outs that look alike come from different tables or passages of the source.

The target of test [1] is T1, Rat α4β2 nAChR subtype (Rattus norvegicus, UniProt P09483+P12390).
T1 construct: from tissue; host or cells: rat cerebral cortex membranes (female Sprague-Dawley)
Kind of test: [3H]nicotine radioligand binding, membranes from rat cortex. As to the method: Preparation of membranes from rat cortex: Rats (female, Sprague-Dawley), weighing 150-250 g, were maintained on a 12 h light/dark cycle and were allowed free access to water and food supplied by PMI Nutrition International, Inc. Animals were anesthetized with 70% CO2, and then decapitated. Brains were removed and placed on an ice-cold platform. The cerebral cortex was removed and placed in 20 volumes (weight:volume) of ice-cold preparative buffer (137 mM NaCl, 10.7 mM KCl, 5.8 mM KH2PO4, 8 mM Na2HPO4, 20 mM HEPES (free acid), 5 mM iodoacetamide, 1.6 mM EDTA, pH 7.4); PMSF, dissolved in methanol to a final concentration of 100 μM, was added and the suspension was homogenized by Polytron. The homogenate was centrifuged at 18,000×g for 20 min at 4° C. and the resulting pellet was re-suspended in 20 volumes of ice-cold water. After 60 min incubation on ice, a new pellet was collected by centrifugation at 18,000×g for 20 min at 4° C. The final pellet was re-suspended in 10 volumes of buffer and stored at ˜20° C.
(§1) On the day of the assay, the frozen membranes were thawed and spun at 48,000×g for 20 min. The supernatant was decanted and discarded. The pellet was resuspended in Dulbecco's phosphate buffered saline (PBS, Life Technologies) pH 7.4 and homogenized with the Polytron for 6 seconds. Protein concentrations were determined using a Pierce BCA Protein Assay Kit, with bovine serum albumin as the standard (Pierce Chemical Company, Rockford, Ill.).
(§2) Assay: Membrane preparations (approximately 50 μg for human and 200-300 μg protein for rat α4β2) were incubated in PBS (50 μL and 100 μL respectively) in the presence of competitor compound (0.01 nM to 100 μM) and 5 nM [^3H]nicotine for 2-3 hours on ice. Incubation was terminated by rapid filtration on a multi-manifold tissue harvester (Brandel, Gaithersburg, Md.) using GF/B filters presoaked in 0.33% polyethyleneimine (w/v) to reduce non-specific binding. Tissue was rinsed 3 times in PBS, pH 7.4. Scintillation fluid was added to filters containing the washed tissue and allowed to equilibrate. Filters were then counted to determine radioactivity bound to the membranes by liquid scintillation counting (2200CA Tri-Carb LSC, Packard Instruments, 50% efficiency or Wallac Trilux 1450 MicroBeta, 40% efficiency, Perkin Elmer).
(§3) Data were expressed as disintegrations per minute (DPMs). Within each assay, each point had 2-3 replicates. The replicates for each point were averaged and plotted against the log of the drug concentration. IC50, which is the concentration of the compound that produces 50% inhibition of binding, was determined by least squares non-linear regression. Ki values were calculated using the Cheng-Prussof equation (1973): […]
(§4) where N is the concentration of [^3H]nicotine and Kd is the affinity of nicotine (3 nM, determined in a separate experiment).

Test [2] concerns the target T2, Human α4β2 nAChR subtype (Homo sapiens, UniProt P17787+P43681).
T2 construct: expressed in transfected cells; host or cells: SH-EP1 clonal cells
Kind of test: [3H]nicotine radioligand binding, membranes from SH-EP1/human α4β2 clonal cells. Here is the method:
Preparation of membranes from SH-EP1/human α4β2 clonal cells:
Cell pellets from 40 150 mm culture dishes were pooled, and homogenized by Polytron (Kinematica GmbH, Switzerland) in 20 milliliters of ice-cold preparative buffer. The homogenate was centrifuged at 48,000 g for 20 minutes at 4° C. The resulting pellet was re-suspended in 20 mL of ice-cold preparative buffer and stored at ˜20° C.
as §1, §2, §3, §4

Where [3] appears, read: [3H]nicotine, "Failed HTS" = failed to bind sufficiently in high through-put screening to warrant Ki determination.
Setting [4] is: [3H]nicotine, "Failed HTS" = failed to bind sufficiently in high through-put screening to warrant Ki determination, read-out: Human α4β2 Ki.
The mark [5] stands for this setting: [3H]nicotine, "Failed HTS" = failed to bind sufficiently in high through-put screening to warrant Ki determination, read-out: Rat α4β2 Ki.

T1 sequence (P09483 31-630): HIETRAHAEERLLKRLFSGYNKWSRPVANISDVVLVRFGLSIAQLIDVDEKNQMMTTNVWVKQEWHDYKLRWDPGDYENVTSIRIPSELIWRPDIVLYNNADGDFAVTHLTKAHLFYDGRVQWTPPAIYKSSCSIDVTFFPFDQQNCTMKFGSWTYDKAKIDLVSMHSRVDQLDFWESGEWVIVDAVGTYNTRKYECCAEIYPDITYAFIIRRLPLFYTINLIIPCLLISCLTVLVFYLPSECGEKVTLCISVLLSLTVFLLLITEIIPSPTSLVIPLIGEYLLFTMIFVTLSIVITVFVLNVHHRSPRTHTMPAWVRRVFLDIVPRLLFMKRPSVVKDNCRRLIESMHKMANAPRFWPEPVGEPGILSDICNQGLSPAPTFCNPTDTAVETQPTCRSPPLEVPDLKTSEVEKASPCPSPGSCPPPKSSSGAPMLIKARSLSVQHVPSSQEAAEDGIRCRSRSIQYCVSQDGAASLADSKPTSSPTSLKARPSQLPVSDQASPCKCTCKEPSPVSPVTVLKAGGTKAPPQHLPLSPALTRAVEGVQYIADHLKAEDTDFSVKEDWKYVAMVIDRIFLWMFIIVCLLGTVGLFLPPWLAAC
T1 sequence (P12390 25-500): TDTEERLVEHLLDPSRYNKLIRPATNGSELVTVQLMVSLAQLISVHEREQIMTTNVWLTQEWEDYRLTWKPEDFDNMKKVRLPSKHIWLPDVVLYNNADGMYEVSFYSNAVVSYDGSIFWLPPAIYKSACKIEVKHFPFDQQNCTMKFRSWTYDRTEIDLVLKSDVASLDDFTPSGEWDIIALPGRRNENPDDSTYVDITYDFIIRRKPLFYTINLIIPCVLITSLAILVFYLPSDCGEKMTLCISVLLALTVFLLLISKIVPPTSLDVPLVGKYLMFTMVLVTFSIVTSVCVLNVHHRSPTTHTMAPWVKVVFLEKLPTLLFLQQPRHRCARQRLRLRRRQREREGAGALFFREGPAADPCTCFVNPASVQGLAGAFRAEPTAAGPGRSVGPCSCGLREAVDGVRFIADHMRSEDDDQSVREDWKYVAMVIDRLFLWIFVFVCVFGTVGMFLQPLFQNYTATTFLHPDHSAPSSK
T2 sequence (P43681 29-627 limits assumed): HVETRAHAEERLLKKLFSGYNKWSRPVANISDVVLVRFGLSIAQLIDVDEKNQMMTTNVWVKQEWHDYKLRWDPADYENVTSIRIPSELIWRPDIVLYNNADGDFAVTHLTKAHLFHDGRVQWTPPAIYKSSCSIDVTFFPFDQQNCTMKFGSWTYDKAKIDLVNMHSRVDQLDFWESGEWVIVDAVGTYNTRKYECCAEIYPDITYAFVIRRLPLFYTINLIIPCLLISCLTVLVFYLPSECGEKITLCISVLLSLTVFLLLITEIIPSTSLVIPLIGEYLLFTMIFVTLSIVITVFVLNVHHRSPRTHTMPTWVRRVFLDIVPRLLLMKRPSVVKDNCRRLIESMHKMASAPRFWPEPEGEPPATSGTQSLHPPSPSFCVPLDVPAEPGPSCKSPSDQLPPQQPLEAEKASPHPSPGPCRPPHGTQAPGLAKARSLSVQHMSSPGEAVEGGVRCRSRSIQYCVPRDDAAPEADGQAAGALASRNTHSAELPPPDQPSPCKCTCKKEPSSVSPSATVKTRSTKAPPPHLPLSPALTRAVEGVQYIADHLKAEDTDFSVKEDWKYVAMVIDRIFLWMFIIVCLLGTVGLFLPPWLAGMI
T2 sequence (P17787 26-502): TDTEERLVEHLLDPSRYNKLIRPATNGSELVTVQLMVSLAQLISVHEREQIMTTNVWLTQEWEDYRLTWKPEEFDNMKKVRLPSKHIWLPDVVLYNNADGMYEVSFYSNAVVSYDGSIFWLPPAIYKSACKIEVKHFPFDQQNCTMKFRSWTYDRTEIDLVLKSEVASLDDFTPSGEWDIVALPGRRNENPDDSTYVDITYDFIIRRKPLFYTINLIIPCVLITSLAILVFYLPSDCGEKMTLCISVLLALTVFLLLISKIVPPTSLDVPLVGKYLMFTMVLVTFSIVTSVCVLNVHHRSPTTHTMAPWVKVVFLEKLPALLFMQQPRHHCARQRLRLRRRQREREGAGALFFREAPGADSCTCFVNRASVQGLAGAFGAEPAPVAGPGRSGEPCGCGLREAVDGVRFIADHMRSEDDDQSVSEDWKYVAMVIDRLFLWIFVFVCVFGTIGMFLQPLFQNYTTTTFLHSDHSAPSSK

Regarding `Cc1nc2cc3c(cc2nc1C)CCNCC3` [B], the Ki in test [1] came to 590 nM; in test [2], 98 nM.

For `CCc1nc2cc3c(cc2nc1C)CCNCC3` [C], in test [1] (setting [3]), the “Rat α4β2 Ki (nM)” value is listed as “Failed HTS”. Besides, the Ki in test [2] (setting [4]) came out at 310 nM.

For the compound `CCc1nc2cc3c(cc2nc1CC)CCNCC3` [D], the “Rat α4β2 Ki (nM)” value in test [1] (setting [3]) is reported as “Failed HTS”. Moreover, the Ki in test [2] (setting [4]) was 460 nM.

For the compound `Cc1cnc2cc3c(cc2n1)CCNCC3` [E], the Ki in test [1] (setting [5]) turned out to be 63 nM; in test [2] (setting [4]) it was 37 nM.

In the case of `c1cnc2cc3c(cc2c1)CCNCC3` [F], the values for the Ki in test [1] (setting [5]) and in test [2] (setting [4]) were 3 nM and 0.93 nM, respectively.

Turning to `O=c1cnc2cc3c(cc2[nH]1)CCNCC3` [G], the values for the Ki in test [1] (setting [5]) and in test [2] (setting [4]) were 120 nM and 63 nM, respectively.

For `COc1cnc2cc3c(cc2n1)CCNCC3` [H], the Ki in test [1] (setting [5]) turned out to be 77 nM; in test [2] (setting [4]), 25 nM.

For `c1cncc(-c2cnc3cc4c(cc3n2)CCNCC4)c1` [I], the “Rat α4β2 Ki (nM)” value in test [1] (setting [3]) is “Failed HTS”. Further, in test [2], the affinity corresponds to a Ki of 7400 nM.

Consider `Clc1cnc2cc3c(cc2n1)CCNCC3` [J], for which the results for the Ki in test [1] and in test [2] were 12 nM and 45 nM, respectively.

As for `CNc1cnc2cc3c(cc2n1)CCNCC3` [K], the “Rat α4β2 Ki (nM)” value in test [1] (setting [3]) is “Failed HTS”. Also, in test [2] (setting [3]), the “Human α4β2 Ki (nM)” value is “Failed HTS”.

For `CN(C)c1cnc2cc3c(cc2n1)CCNCC3` [L], the “Rat α4β2 Ki (nM)” value in test [1] (setting [3]) was “Failed HTS”. For the same compound, the Ki in test [2] (setting [4]) is 740 nM.

Turning to `c1ccc(CNc2cnc3cc4c(cc3n2)CCNCC4)cc1` [M], the “Rat α4β2 Ki (nM)” value in test [1] (setting [3]) was “Failed HTS”. In test [2] (setting [4]), the Ki was 530 nM.

As for `O=c1ccc2cc3c(cc2[nH]1)CCNCC3` [N], the “Rat α4β2 Ki (nM)” value in test [1] (setting [3]) was “Failed HTS”. Further, the “Human α4β2 Ki (nM)” value in test [2] (setting [3]) is reported as “Failed HTS”.

Regarding `Clc1ccc2cc3c(cc2n1)CCNCC3` [O], the Ki in test [1] amounted to 3.1 nM; in test [2], 0.48 nM.

Take `COc1ccc2cc3c(cc2n1)CCNCC3` [P]: the “Rat α4β2 Ki (nM)” value in test [1] (setting [3]) is on record as “Failed HTS”. Besides, the Ki in test [2] (setting [4]) amounted to 1200 nM.

Consider `Cc1ccc2cc3c(cc2n1)CCNCC3` [Q], for which the Ki in test [1] (setting [5]) came to 45 nM; in test [2] (setting [4]) it was 11 nM.

Turning to `CN1CCc2cc3nccnc3cc2CC1` [R], the “Rat α4β2 Ki (nM)” value in test [1] (setting [3]) is recorded as “Failed HTS”. For the same compound, in test [2], the Ki came out at 210 nM.

By Ki is commonly meant a measure of affinity in units of concentration, obtained from inhibition or displacement.
